Test results as given in article PMC5841303, “In silico screening for human norovirus antivirals reveals a novel non-nucleoside inhibitor of the viral polymerase” (Scientific Reports, 2018).

Test: CellTitre Blue cell viability (cytotoxicity) assay
Type: cell-based
Details: mouse, RAW264.7 mouse macrophage cells, 0.5–100 µM, read-out: CC50 (half maximal cytotoxic concentration)
Experimental: As mentioned above, the only robust cellular assay available for the evaluation of potential norovirus inhibitors is the closely related MNV assay. […] Consequently, 54 was further assessed to determine the IC50 value against MNV RdRp activity using an in vitro fluorescent assay. […] 54 was then assessed for cytotoxicity against RAW264.7 mouse macrophage cells using a cell viability assay. […] Using the plaque reduction assay, the inhibitory effects of 54 (0.5–50 µM) were examined against MNV plaque formation in cell culture. […] Compound solubility and its cell-membrane permeability properties could be further improved with structure-activity relationship enhancement of the 54 scaffold to facilitate cellular uptake, and therefore to increase antiviral efficacy. Work on this aspect is ongoing, and it will be reported in due course.
MNV-1 (CW1) culture assays were performed as previously described. Replication was examined using plaque assays[58],[64],[65]. Cytotoxicity was examined using a CellTitre Blue (Promega, Madison, WI, USA) viability assay as described previously.

Which CC50 does the source give for O=C1NN(c2ccccc2)C(=O)/C1=C/c1ccc(-c2ccc(S(=O)(=O)Nc3ccccc3)cc2)o1 [Compound 54] here?
Its CC50 is 62.8 µM.
